From patent US4719223A, “Imidazolethiol dopamine-beta-hydroxylase inhibitors” (SmithKline Beckman Corporation, priority 1985, dated 1988)
Read-outs that look alike come from different tables or passages of the source. Each block holds one molecule with its values, some of them ahead of it.

Legend:
[1] = molecular target: T1, dopamine-β-hydroxylase (DBH) (Bos taurus, UniProt P15101); assay: in vitro DBH inhibition (conversion of tyramine to octopamine, absorbance at 330 nm); format: biochemical; settings: for DBH inhibiting activity: phenolic hydroxy group replaced by isostere
T1 sequence (P15101 1-610): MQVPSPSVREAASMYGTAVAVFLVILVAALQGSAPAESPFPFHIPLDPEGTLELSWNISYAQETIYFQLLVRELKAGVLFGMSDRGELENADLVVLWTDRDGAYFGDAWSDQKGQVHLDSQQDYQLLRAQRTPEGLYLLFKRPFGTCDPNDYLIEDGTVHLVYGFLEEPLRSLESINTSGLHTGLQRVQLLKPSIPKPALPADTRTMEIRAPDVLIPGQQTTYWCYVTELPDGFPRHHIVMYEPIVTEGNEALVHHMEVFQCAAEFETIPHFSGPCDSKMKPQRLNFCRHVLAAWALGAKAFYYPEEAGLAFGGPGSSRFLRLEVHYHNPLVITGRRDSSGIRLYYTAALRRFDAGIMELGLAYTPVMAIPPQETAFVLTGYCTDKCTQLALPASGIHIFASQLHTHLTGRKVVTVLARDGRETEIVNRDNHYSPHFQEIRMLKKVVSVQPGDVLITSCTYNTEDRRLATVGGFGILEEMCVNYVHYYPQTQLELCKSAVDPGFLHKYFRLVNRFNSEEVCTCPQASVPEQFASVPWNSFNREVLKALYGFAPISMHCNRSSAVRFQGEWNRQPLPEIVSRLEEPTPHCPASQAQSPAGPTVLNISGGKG
Description: Because the compounds of Formula I inhibit DBH activity, they have therapeutic value as diuretic, natriuretic, cardiotonic, antihypertensive and vasodilator agents, as well as antiulcerogenic and anti-Parkinsonian agents. Listed in Table I are the compounds of the invention that were tested for in vitro DBH inhibition by a standard procedure for assaying conversion of tyramine to octopamine in the presence of DBH. J. J. Pisano, et al., Biochim. Biophys. Acta; 43, […] (1960). Octopamine was assayed following sodium periodate oxidation to p-hydroxybenzaldehyde by measuring spectrophotometric absorbance at 330 nm. In Table I, inhibition is given in molar concentration of compound at which DBH activity was halved (IC50). Melting points (mp) are given in °C.
This testing was performed using compounds prepared by substituting various phenolic isosteres for the phenolic hydroxy group of another DBH inhibitor, 1-(3',5'-difluoro-4'-hydroxybenzyl)imidazole-2-thiol (U.S. patent application Ser. No. 590,665, filed Mar. 19, 1984).

[2] = system: peripheral dopamine (DA) and norepinephrine (NE) levels; assay: in vivo effect on peripheral dopamine (DA) and norepinephrine (NE) levels; design: species or system spontaneously hypertensive rats; settings: 50 mg/kg orally, twice, about 18 h apart, sacrificed about 2 h after second dose; for DA/NE Ratio / DA: p < 0.001; for NE / DA: μg per gram of tissue
Description: One of the compounds of the invention was tested for its effect in vivo on peripheral dopamine (DA) and norepinephrine (NE) levels substantially by the procedure of DaPrada and Zurcher, Life Sciences, 19, 1161, (1976). Groups of five spontaneously hypertensive rats were dosed orally, twice, the second dose approximately 18 hours after the first, and were sacrificed about 2 hours after the second dose.

[3] = mean arterial blood pressure in spontaneously hypertensive rats; format: in vivo; settings: 50 mg/kg intraperitoneally; 15 min
Description: Further, spontaneously hypertensive rats were dosed with a suspension or solution of 1-(4'-amino-3',5'-difluorobenzyl)imidazole-2-thiol at a dose of 50 mg/kg intraperitoneally, and mean arterial blood pressure was monitored for 260 minutes using indwelling cannulae positioned in the tail arteries. Approximate forty percent reductions in blood pressure were observed fifteen minutes following administration of this compound. At 260 minutes after administration of this compound, blood pressure remained reduced by approximately ten percent when compared to vehicle-treated controls.

[4] = system: DBH; settings: cited from earlier work; for DBH inhibition: literature reports; for mode of DBH inhibition: apparent, phenethylamine analogues
[5] = system: DBH; settings: Friedman et al. 1978; significance uncertain; cited from earlier work
[6] = Teresawa et al. 1971; cited from earlier work
[7] = Ehrreich et al. 1976; cited from earlier work
[8] = in vitro, tyramine to octopamine, read-out: IC50 (molar concentration of compound at which DBH activity was halved)

DBH inhibiting activity ([1]; in vitro): devoid of DBH inhibiting activity
Molecule: CS(=O)(=O)Cc1c(F)cc(Cn2ccnc2S)cc1F [--CH2 SO2 CH3]

IC50 [1, 8]: 1200 nM
Molecule: Nc1c(F)cc(Cn2ccnc2S)cc1F [1-(4'-amino-3',5'-difluorobenzyl)imidazole-2-thiol]
DA/NE Ratio [2]: 0.151
NE [2]: 5.53 µg/g
DA [2]: 0.821 µg/g
reduction in blood pressure, fifteen minutes after administration [3]: forty

Molecule: O=C(O)c1ccc(CCCCCl)cn1 [5-(4-chlorobutyl)picolinic acid]
DBH inhibition [4]: inhibit DBH

Molecule: C[C@](N)(Cc1ccc(O)c(O)c1)C(=O)O [alpha-methyl-DOPA]
DBH levels in treated patients [5]: lowered DBH levels

Molecule: phenylpicolinic acid
DBH inhibitory activity relative to fusaric acid ([4]; Runti et al. 1980): twice the inhibitory activity of fusaric acid

Molecule: NOCc1ccccc1 [Benzyloxyamine, benzyloxyamine]
mode of DBH inhibition [4]: competitive inhibitors

DBH inhibiting activity ([1]; in vitro): devoid of DBH inhibiting activity
Molecule: O=CNc1c(F)cc(Cn2ccnc2S)cc1F [--NHCHO]

DBH inhibiting activity ([1]; in vitro): devoid of DBH inhibiting activity
Molecule: NS(=O)(=O)Nc1c(F)cc(Cn2ccnc2S)cc1F [--NHSO2 NH2]

Molecule: NNCc1ccccc1 [benzylhydrazine]
mode of DBH inhibition [4]: competitive inhibitors

Molecule: CN(C)C(=S)SCc1ccc(C(=O)O)nc1 [5-(dimethyldithiocarbamoyl)methylpicolinic acid]
DBH inhibition [4]: DBH inhibitors

IC50 [1, 8]: 3100 nM
Molecule: Nc1c(Cl)cc(Cn2ccnc2S)cc1Cl [1-(4'-amino-3',5'-dichlorobenzyl)imidazole-2-thiol]

Molecule: CCCCc1ccc(C(=O)O)nc1 [Fusaric acid]
DA/NE Ratio [2]: 0.0937
NE [2]: 5.63 µg/g
DA [2]: 0.529 µg/g
hepatotoxicity [6]: hepatotoxic

Molecule: O=C(O)c1ccc(CCC(Br)CBr)cn1 (stereo not shown) [5-(3,4-dibromobutyl)picolinic acid]
DBH inhibition [4]: DBH inhibitors

DBH inhibiting activity ([1]; in vitro): devoid of DBH inhibiting activity
Molecule: O=C(Nc1c(F)cc(Cn2ccnc2S)cc1F)C(F)(F)F [--NHCOCF3]

Molecule: COC(=O)[C@H]1[C@H]2C[C@@H]3c4[nH]c5cc(OC)ccc5c4CCN3C[C@H]2C[C@@H](OC(=O)c2cc(OC)c(OC)c(OC)c2)[C@@H]1OC [reserpine]
DBH levels in treated patients [5]: lowered DBH levels

Molecule: CCCCc1ccc(C(N)=O)nc1 [Bupicomide, 5-(n-butyl)picolinamine]
DBH inhibition [4]: DBH inhibitor
antihypertensive activity [7]: antihypertensive activity

IC50 ([1]; comparison compound of U.S. patent application Ser. No. 590,665, read-out: IC50 of comparison DBH inhibitor): 80 nM
Molecule: Oc1c(F)cc(Cn2cc[nH]c2=S)cc1F [1-(3',5'-difluoro-4'-hydroxybenzyl)imidazole-2-thiol]
